Read-outs that look alike come from different tables or passages of the source. *1 amine or outer side, *2 acyl side, *3 side chain or, on linkers, in order; H or OH if unused. Where a SMILES comes first, the peptide text is derived from it. Bridges are numbered along the chain shown (N, C = ends). [ ]: non-standard residue; d: D form. N(4-F-Bzl)Gly = O=C(O)CNCc1ccc(F)cc1; X1 = O=C(CCC[*:2])[*:1]
What was measured:
[1] = system: healthy women;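 for Any AE: number of AEs, E: adverse events in healthy women given intranasal doses every 3 h over 45 h (16 doses per panel), each panel with 6 active and 2 placebo subjects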;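 for Any AE: subjects with AE, n (%): adverse events in healthy women given intranasal doses every 3 h over 45 h (16 doses per panel), each panel with 6 active and 2 placebo subjects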
Protocol: Part 2. Ascending multiple i.n. doses. There were 3 dose panels with 8 healthy women in each dose panel (6 active, 2 placebo). The dosing schedule was every 3 hours for 45 hours, i.e. 16 doses in all. The doses investigated were 50 μg, 200 μg, and 400 μg.
Three dose levels were investigated: the first dose was 50 μg, the second dose was 200 μg (intermediate between the first dose and the maximal tolerated dose in Part 1), and the highest dose was 400 μg (the maximal dose in Part 1).

[2] = system: chymotrypsin
[3] = system: healthy women; settings: in vivo;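 for Any AE: number of AEs, E: adverse events in healthy women given intranasal doses every 3 h over 45 h (16 doses per panel), each panel with 6 active and 2 placebo subjects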;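 for Any AE: subjects with AE, n (%): adverse events in healthy women given intranasal doses every 3 h over 45 h (16 doses per panel), each panel with 6 active and 2 placebo subjects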
[4] = clinical; settings: female, human, in vivo
Protocol: (§1) The first clinical trial in human, Trial 000015, was a double-blind, placebo-controlled, single dose, within dose panel randomised, sequential dose escalating study. The trial was divided into three parts:
(§2) Part 1. Ascending single i.n. doses. There were 7 dose panels with 8 healthy women in each dose panel (6 active, 2 placebo). The doses investigated were 5 μg, 15 μg, 50 μg, 100 μg, 200 μg, 300 μg, and 400 μg.
(§3) Seven dose levels were investigated: 5, 15, 50, 100, 200, 300, and 400 μg. Each of the doses were administered as a nasal spray based on one or multiple puffs per nostril.
(§4) FE 202767 was provided as an isotonic citrate/phosphate buffered solution of pH 5.5 in water in vials containing an extractable volume of 0.9 mL (Table 2). The concentration of FE 202767 was 0.7 mg/mL, to be used appropriately diluted with buffer or, for Part 3, NaCl for injection. The buffer used for FE 202767 was used as placebo in this study.

[5] = Trial 000015 Part 1: pharmacokinetics after single intranasal administration
Protocol: as §1, §2, §3, §4

[6] = Trial 000015 Part 3: pharmacokinetics, single intranasal and single intravenous cross-over; settings: female, human, plasma; for Tmax: tmax Mean (SD); for bioavailability: 400 μg i.n. vs 20 μg i.v.
Protocol: Open-label cross-over single i.n. and single i.v. dose in 6 healthy women. The doses investigated were 20 μg as an i.v. infusion over 25 minutes, and 400 μg as a single i.n. dose.
The intranasal dose was 400 μg (4×140 μl, the same as the highest dose in Part 1), the i.v. dose was 20 μg infused in 2 mL over 25 minutes.
The intravenous dose and infusion rate were determined from the intranasal pharmacokinetic data in Part 1.

[7] = multiple doses 50 μg i.n., N = 6
[8] = multiple doses 200 μg i.n., N = 6
[9] = multiple doses 400 μg i.n., N = 6

In the case of `CC[C@H](C)[C@@H]1NC(=O)[C@H](Cc2ccc(O)cc2)NC(=O)CCCSC[C@@H](C(=O)N(CC(=O)N[C@@H](CC(C)C)C(=O)NCC(N)=O)Cc2ccc(F)cc2)NC(=O)[C@H](CC(N)=O)NC(=O)[C@H](CCC(N)=O)NC1=O` [merotocin, Glycinamide, N-(4-mercapto-1-oxobutyl)-L-tyrosyl-L-isoleucyl-Lglutaminyl-L-asparaginyl-L-cysteinyl-N-[(4-fluorophenyl)methyl]glycyl-L-leucyl-, cyclic (1→5)-thioether] (YIQNC[N(4-F-Bzl)Gly]LG-NH2; linker N-5 via X1), the “Any AE: number of AEs, E” value [1, 7] is reported as 3, the “Any AE: subjects with AE, n (%)” value [1, 7] is reported as 3 (50%) and the “Breast tenderness: number of AEs, E” value [1, 7] is reported as 1. The “Breast tenderness: subjects with AE, n (%)” value [1, 7] was 1 (17%), the “Headache: number of AEs, E” value [1, 7] was 2 and the “Headache: subjects with AE, n (%)” value [1, 7] was 2 (33%). For the same compound, the “Any AE: number of AEs, E” value [1, 8] was 5, the “Any AE: subjects with AE, n (%)” value [1, 8] was 4 (67%) and the “Dry mouth: number of AEs, E” value [1, 8] was 3. For the same compound, the “Dry mouth: subjects with AE, n (%)” value [1, 8] was 3 (50%), the “Flushing: number of AEs, E” value [1, 8] was 1 and the “Flushing: subjects with AE, n (%)” value [1, 8] was 1 (17%). The “Headache: number of AEs, E” value [1, 8] was 1, the “Headache: subjects with AE, n (%)” value [1, 8] was 1 (17%) and the “Any AE: number of AEs, E” value [1, 9] was 6. For the same compound, the “Any AE: subjects with AE, n (%)” value [1, 9] was 3 (50%), the “Dry mouth: number of AEs, E” value [1, 9] was 2 and the “Dry mouth: subjects with AE, n (%)” value [1, 9] was 2 (33%). For the same compound, the “Flushing: number of AEs, E” value [1, 9] was 1, the “Flushing: subjects with AE, n (%)” value [1, 9] was 1 (17%) and the “Headache: number of AEs, E” value [1, 9] was 2. The “Headache: subjects with AE, n (%)” value [1, 9] was 1 (17%), the “Nausea: number of AEs, E” value [1, 9] was 1 and the “Nausea: subjects with AE, n (%)” value [1, 9] was 1 (17%). The “number of TEAEs reported” value ([1]; multiple doses, 24 subjects) was 14, the degradation by chymotrypsin [2] was “degradable by chymotrypsin” and the “ECG and safety laboratory parameters” value [3] was “not affected to any measurable extent”. The blood pressure shifts [3] was “Only occasional events of blood pressure shifts”, the pulse rate [3] was “appeared to increase the pulse rate” and the urinary retention [3] was “no signs of urinary retention”. For the same compound, the half-life ([4]; inhaled or intranasal, 200 ug, t1/2 Median) was 23.4 min, the half-life ([4]; inhaled or intranasal, 400 ug, t1/2 Harmonic mean) was 33.6 min and the half-life ([4]; inhaled or intranasal, 400 ug, t1/2 Median) was 33 min. It also gave a half-life ([4]; t1/2) of 25 to 35 min, a Cmax ([5]; female, human, plasma, inhaled or intranasal, 100 ug, Cmax Geom. mean (% CV), single i.n. dose 100 μg, N = 6) of 0.0379 ng/mL and a Cmax ([5]; female, human, plasma, inhaled or intranasal, 100 ug, Cmax Median, single i.n. dose 100 μg, N = 6) of 0.0322 ng/mL. It also gave an AUC(0-t) ([5]; female, human, plasma, inhaled or intranasal, 200 ug, AUCt Geom. mean (% CV), single i.n. dose 200 μg, N = 6) of 0.0357 ng·h/mL, an AUC(0-t) ([5]; female, human, plasma, inhaled or intranasal, 200 ug, AUCt Median, single i.n. dose 200 μg, N = 6) of 0.0525 ng·h/mL and a Cmax ([5]; female, human, plasma, inhaled or intranasal, 200 ug, Cmax Geom. mean (% CV), single i.n. dose 200 μg, N = 6) of 0.0841 ng/mL. It also gave a Cmax ([5]; female, human, plasma, inhaled or intranasal, 200 ug, Cmax Median, single i.n. dose 200 μg, N = 6) of 0.0999 ng/mL, an AUC(0-t) ([5]; female, human, plasma, inhaled or intranasal, 300 ug, AUCt Geom. mean (% CV), single i.n. dose 300 μg, N = 6) of 0.0778 ng·h/mL and an AUC(0-t) ([5]; female, human, plasma, inhaled or intranasal, 300 ug, AUCt Median, single i.n. dose 300 μg, N = 6) of 0.0943 ng·h/mL. The Cmax ([5]; female, human, plasma, inhaled or intranasal, 300 ug, Cmax Geom. mean (% CV), single i.n. dose 300 μg, N = 6) was 0.143 ng/mL, the Cmax ([5]; female, human, plasma, inhaled or intranasal, 300 ug, Cmax Median, single i.n. dose 300 μg, N = 6) was 0.148 ng/mL and the Tmax ([5]; female, human, plasma, inhaled or intranasal, 300 ug, tmax Mean (SD), single i.n. dose 300 μg, N = 6) was 12 min. It also gave an AUC(0-t) ([5]; female, human, plasma, inhaled or intranasal, 400 ug, AUCt Geom. mean (% CV), single i.n. dose 400 μg, N = 6) of 0.0886 ng·h/mL, an AUC(0-t) ([5]; female, human, plasma, inhaled or intranasal, 400 ug, AUCt Median, single i.n. dose 400 μg, N = 6) of 0.119 ng·h/mL and a Cmax ([5]; female, human, plasma, inhaled or intranasal, 400 ug, Cmax Median, single i.n. dose 400 μg, N = 6) of 0.199 ng/mL. For the same compound, the Tmax ([5]; female, human, plasma, inhaled or intranasal, 400 ug, tmax Mean (SD), single i.n. dose 400 μg, N = 6) was 13.2 min, the Tmax ([5]; female, human, plasma, other: intranasal, tmax, all i.n. dose levels, single or multiple administration) was 12 to 15 min and the Tmax ([5]; female, human, plasma, other: intranasal, tmax, single i.n. dose, all dose groups) was 12 to 15 min. For the same compound, the half-life ([5]; female, human, plasma, other: intranasal, t½, after i.n. administration, Trial 000015 key results) was about 30 min, the “increase of exposure (AUC and Cmax) with dose” value ([5]; single i.n. doses) was “close to dose proportional manner” and the AUC(0-t) ([6]; inhaled or intranasal, 400 ug, AUCt Geom. mean (% CV), cross-over, 400 μg i.n. single dose, N = 6) was 0.083 ng·h/mL. For the same compound, the AUC(0-t) ([6]; inhaled or intranasal, 400 ug, AUCt Median, cross-over, 400 μg i.n. single dose, N = 6) was 0.0728 ng·h/mL, the half-life ([6]; inhaled or intranasal, 400 ug, t1/2 Median, cross-over, 400 μg i.n. single dose, N = 6) was 36.6 min and the Tmax ([6]; inhaled or intranasal, 400 ug, cross-over, 400 μg i.n. single dose, N = 6) was 6.6 min. The AUC(0-t) ([6]; iv, 20 ug, AUCt Geom. mean (% CV), cross-over, 20 μg i.v. infusion over 25 minutes, N = 6) was 0.146 ng·h/mL, the clearance ([6]; iv, 20 ug, CL Median, 20 μg i.v. infusion over 25 minutes, N = 6) was 2130 mL/min and the Cmax ([6]; iv, 20 μg, Cmax Geom. mean (% CV), cross-over, 20 μg i.v. infusion over 25 minutes, N = 6) was 0.463 ng/mL. For the same compound, the Cmax ([6]; iv, 20 ug, Cmax Median, cross-over, 20 μg i.v. infusion over 25 minutes, N = 6) was 0.463 ng/mL, the Vd ([6]; iv, 20 ug, Vz Mean (SD), 20 μg i.v. infusion over 25 minutes, N = 6) was 37.5 L and the Vd ([6]; iv, 20 ug, Vz Median, 20 μg i.v. infusion over 25 minutes, N = 6) was 31.2 L. The Cmax ([6]; iv, 20 μg, mean Cmax, single i.v. infusion of 20 μg over 25 minutes) was 0.463 ng/mL, the half-life ([6]; iv, 20 ug, t1/2 Harmonic mean, cross-over, 20 μg i.v. infusion over 25 minutes, N = 6) was 10.2 min and the half-life ([6]; iv, 20 ug, t1/2 Median, cross-over, 20 μg i.v. infusion over 25 minutes, N = 6) was 10.8 min. For the same compound, the Tmax ([6]; iv, 20 ug, cross-over, 20 μg i.v. infusion over 25 minutes, N = 6) was 21.6 min, the Cmax ([6]; other: intranasal, 400 ug, Cmax Geom. mean (% CV), cross-over, 400 μg i.n. single dose, N = 6) was 0.151 ng/mL and the Cmax ([6]; other: intranasal, 400 ug, Cmax Median, cross-over, 400 μg i.n. single dose, N = 6) was 0.156 ng/mL. It also gave a bioavailability ([6]; other: intranasal, 400 μg, F Median, N = 6) of 3.4%, a bioavailability ([6]; other: intranasal, 400 μg, bioavailability (range)) of 2.2 to 6.2% and a Cmax ([6]; other: intranasal, 400 μg, mean Cmax, single dose i.n. administration, highest dose group) of 0.151 ng/mL.
